Results published in paper PMC7663263 (Molecules, 2020).

Assays:
[1] = system: L. infantum MHOM/MA (BE)/67 amastigotes; assay: Anti-leishmanial activity, L. infantum amastigotes in primary peritoneal mouse macrophages; format: cell-based, Leishmania infantum; details: amastigotes in primary peritoneal mouse macrophages, 5 days; read-out: Leishmania infantum IC50 (µM) ± SD
Procedure: Anti-leishmanial activity: L. infantum MHOM/MA (BE)/67 amastigotes were collected from the spleen of an infected donor hamster and used to infect primary peritoneal mouse macrophages grown in a 96-well plate. After 2 days outgrowth, 5 × 10^5 amastigotes were added to each well and incubated for 2 h at 37 °C. The compounds were subsequently added and the plates were further incubated for 5 days at 37 °C and 5% CO2. Parasite burdens (mean number of amastigotes/macrophage) were microscopically assessed on 500 cells after Giemsa staining and expressed as a percentage of the blank controls. Miltefosine was included as reference drug. The use of laboratory rodents was carried out in accordance to all mandatory guidelines (EU directives, including the Revised Directive 2010/63/EU on the Protection of Animals used for Scientific Purposes that came into force on 1 January 2013, and the declaration of Helsinki in its latest version) and was approved by the Ethical Committee of the University of Antwerp, Belgium [UA-ECD 2011–77 (17-02-2012 and UA-ECD 2015-90].

B. pahangi TrxR = B. pahangi TrxR enzyme assay, DTNB reduction (original data); format: biochemical, Brugia pahangi; details: 100 nM enzyme, 3 mM DTNB; after 10 min preincubation; read-out: IC50 B. pahangi TrxR, substrate DTNB (original data)
Procedure: (§1) Enzymes were prepared in E. coli as described. Assays were performed at 25 °C in 0.1 M potassium phosphate (pH 7.4), 10 mM EDTA using 100 μM NADPH and 3 mM dithiobis(2-nitrobenzoic acid) (DTNB). […] The increase in A412 during the first 3 min was recorded upon DTNB addition. The reaction was done in triplicate.

S. mansoni TGR = target: T1, S. mansoni TGR (Schistosoma mansoni, UniProt Q962Y6); assay: biochemical; details: 40 nM enzyme, 3 mM DTNB; after 10 min preincubation; read-out: IC50 S. mansoni TGR, substrate DTNB (original data)
T1 construct: made in house; host or cells: E. coli
T1 sequence (Q962Y6 1-598): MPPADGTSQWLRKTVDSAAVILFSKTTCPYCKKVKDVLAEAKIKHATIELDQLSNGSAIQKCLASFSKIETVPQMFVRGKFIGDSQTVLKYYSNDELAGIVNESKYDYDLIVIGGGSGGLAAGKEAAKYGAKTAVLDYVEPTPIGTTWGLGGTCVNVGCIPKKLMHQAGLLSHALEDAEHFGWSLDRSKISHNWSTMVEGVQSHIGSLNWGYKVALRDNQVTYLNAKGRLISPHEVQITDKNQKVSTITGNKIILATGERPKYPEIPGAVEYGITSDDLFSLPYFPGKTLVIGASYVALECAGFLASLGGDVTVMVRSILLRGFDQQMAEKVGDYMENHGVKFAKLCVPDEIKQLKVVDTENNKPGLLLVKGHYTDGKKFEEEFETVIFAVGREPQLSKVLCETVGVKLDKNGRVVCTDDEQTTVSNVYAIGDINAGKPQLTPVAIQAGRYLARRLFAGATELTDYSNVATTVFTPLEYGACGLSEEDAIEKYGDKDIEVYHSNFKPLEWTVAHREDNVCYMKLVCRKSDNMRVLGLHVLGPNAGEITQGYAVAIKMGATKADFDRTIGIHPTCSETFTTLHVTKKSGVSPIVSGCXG
Procedure: as §1

BL3 cells = assay: Proliferation test on non-infected BL3 cells; format: cell-based, bovine; details: […] and 0.5 μM
Procedure: Theileria annulata culture: The TBL3 cell line was derived by in vitro infection of the spontaneous bovine B-lymphosarcoma cell line BL3 with the Hissar stock of T. annulata. B cell characteristics of the lines have been described. The cells are maintained at 37 °C under 5% CO2, in RPMI medium supplemented with 10% FCS, 25 mM Hepes, 4 mM L-glutamine, 100 μg/mL of streptomycin, 100 IU/mL of penicillin and […] 2-mercapthoethanol.
Cells were cultured in 12-well plates at an initial density of 200,000 cells per well in duplicate for each condition. […] The cells were cultured in 12-well plates at an initial density of 200,000 cells per well and drug was added every 24 h. To be able to compare the results, a drug-free control was also performed. Cell counting was done at 24, 72 and 96 h using the trypan blue method.

With `CC(=O)OCC1OC([S][Au][PH]2(c3ccccc3)C(c3ccccn3)=CC=C2c2ccccn2)C(OC(C)=O)C(OC(C)=O)C1OC(C)=O` [GoPI-sugar, 1-thio-β-D-glucopyranose 2,3,4,6-tetraacetato-S-Au{1-phenyl-2,5-di(2-pyridyl)phosphole}] the IC50 [1] was 2.38 µM, the IC50 (B. pahangi TrxR) was 0.0055 µM and the IC50 (S. mansoni TGR) was 0.0125 µM. The “proliferation of BL3 compared to untreated BL3 cells” value (BL3 cells) was “dampened”.
